Measured values as given in patent US8871443B2, “Schizophrenia-related isoform of KCNH2 and development of antipsychotic drugs” (The United States of America, as represented by the …, priority 2007, dated 2014).

Experiments:
NOS3 mRNA expression = experiment: NOS3 expression in frontal cortex of neuroleptic treated rats; type: in vivo, rat; details: one of three doses for 28 days, vs vehicle
Experimental: (§1) Referring to FIG. 19, 8-10 rats per treatment group were treated with one of three doses of either Haloperidol (0.08, 0.6, and 1 mg/kg) or Clozapine (0.5, 5, 10 mg/kg) for 28 days (as compared to rats treated with vehicle alone). Frontal cortex expression levels of NOS3 (ABI assay Rn02132634_sl) and KCNH2-1A (ABI assay Rn01442523_ml) were normalized to the geometric mean of two housekeeping genes (GAPDH, B2M). Effects of antipsychotic treatment on gene expression were tested by linear regression with gene expression as the dependent variable. Differences between vehicle alone and the two therapeutic range equivalent dosages (0.08 and 0.6 mg/kg/day of Haloperidol; 0.5 and 5 mg/kg/day of Clozapine) were tested using post-hoc LSD.

KCNH2-1A mRNA expression = experiment: KCNH2-1A expression in frontal cortex of neuroleptic treated rats; details: for change in KCNH2-1A expression, frontal cortex: 28 days; for effect on KCNH2-1A expression within the frontal cortex: one of three doses for 28 days, vs vehicle
Experimental: as §1

[1] = tested on: patients with schizophrenia; experiment: CATIE trial, time to discontinuation of olanzapine (Cox proportional hazard model); type: in vivo, human; details: for hazard ratio (HR) of discontinuation of medication: n=89; for Time to discontinuation, Est (COX proportional hazard model) / Time to discontinuation, HR (hazard ratio): n = 89, event = 46
Source text: The second cohort consisted of patients randomly assigned to five medications during the Phase 1/1A (first drug assigned) of the Clinical Antipsychotic Trials of Intervention Effectiveness (CATIE), (Stroup T S, McEvoy J P, Swartz M S, et al. The National Institute of Mental Health Clinical Antipsychotic Trials of Intervention Effectiveness (CATIE) project: Schizophrenia trial design and protocol development. Schizophr. Bull. 2003; 29(1):15-31) a clinical trial to compare the effectiveness of antipsychotic drugs. Patients were initially randomly assigned to receive olanzapine, perphenazine, quetiapine, risperidone or ziprasidone under double-blind conditions and followed up for 18 months or until treatment was discontinued or switched to another antipsychotic (i.e. Phase 2). Eligible patients were 18 to 65 years of age, had received a diagnosis of schizophrenia based on DSM-IV criteria 26 and were able to take oral antipsychotic medication. The primary outcome measure in the CATIE sample was time to medication discontinuation, most often due to lack of efficacy or side-effects. PANSS ratings were included as a secondary efficacy outcome. Details on the CATIE trial methods have been previously published. (Stroup T S, McEvoy J P, Swartz M S, et al. The National Institute of Mental Health Clinical Antipsychotic Trials of Intervention Effectiveness (CATIE) project: Schizophrenia trial design and protocol development. Schizophr. Bull. 2003; 29(1):15-31.) For consistency with the NIMH inpatient study and to reduce effects of genetic heterogeneity, only Caucasian subjects were included for analysis. Because of the outpatient and parallel design of this study, information about compliance based on drug clearance is an important factor determining symptom change during the CATIE trial. (Bigos K L, Pollock B G, Coley K C, et al. Sex, race, and smoking impact olanzapine exposure. Journal of Clinical Pharmacology. 2008; 48(2):157-165; Bigos K L, Bies R R, Pollock B G, Lowy J J, Zhang F, Weinberger D R. Genetic Variation in CYP3A43 Explains Racial Difference in Olanzapine Clearance. Molecular Psychiatry. In Press.) Thus, we only analyzed treatment response from subjects on whom we had drug clearance data (N=364) (Bigos K L, Pollock B G, Coley K C, et al. Sex, race, and smoking impact olanzapine exposure. Journal of Clinical Pharmacology. 2008; 48(2):157-165). Drug clearance was estimated using population pharmacokinetic modeling of drug concentrations and used in the statistical analysis of treatment response as previously described. (Bigos K L, Pollock B G, Coley K C, et al. Sex, race, and smoking impact olanzapine exposure. Journal of Clinical Pharmacology. 2008; 48(2):157-165. Bigos K L, Bies R R, Pollock B G, Lowy J J, Zhang F, Weinberger D R. Genetic Variation in CYP3A43 Explains Racial Difference in Olanzapine Clearance. Molecular Psychiatry. In Press.)
We genotyped three SNPs rs3900779, rs748693 and rs1036145 in KCNH2 which have been associated with schizophrenia and with expression of the novel KCNH2 3.1 isoform in human post-mortem brain. (Huffaker S J, Chen J S, Nicodemus K K, et al. A primate-specific, brain isoform of KCNH2 affects cortical physiology, cognition, neuronal repolarization and risk of schizophrenia. Nat. Med. May 2009; 15(5):509-518.) Genotypes were determined using the 5′-exonuclease fluorescent Taqman assay (assay by design or assay on demand) and the allelic discrimination was read on an ABI 7900 SDS system (Applied Biosystems, Foster City, Calif.). (Livak K J. Allelic discrimination using fluorogenic probes and the 5′ nuclease assay. Genet. Anal.-Biomol. Eng. February 1999; 14(5-6):143-149.)
We also attempted to examine time to discontinuation of medication, which was a primary outcome measure of the CATIE trial. […]

[2] = rs748693, second genotype line (genotype not given) vs non-risk allele homozygote
[3] = rs748693 GG genotype vs non-risk allele homozygote
[4] = rs1036145, second genotype line (genotype not given) vs non-risk allele homozygote
[5] = rs1036145 TT genotype vs non-risk allele homozygote
[6] = rs3900779, second genotype line (genotype not given) vs reference
[7] = rs3900779, third genotype line (genotype not given) vs reference

| SMILES | effect on NOS3 expression within the frontal cortex (NOS3 mRNA expression) | change in KCNH2-1A expression, frontal cortex (KCNH2-1A mRNA expression; 0.08 mg/kg/day, did not reach significance (p=0.082)) | change in KCNH2-1A expression, frontal cortex (KCNH2-1A mRNA expression; 0.6 mg/kg/day, did not reach significance (p=0.119)) | effect on KCNH2-1A expression within the frontal cortex (KCNH2-1A mRNA expression) | times less likely to have discontinued medication ([1]; GG genotype at rs748693 vs non-risk allele homozygote) [times] | hazard ratio (HR) of discontinuation of medication ([1]; GG genotype at rs748693 vs non-risk allele homozygote, p=0.031) | times less likely to have discontinued medication ([1]; TT genotype at rs1036145 vs non-risk allele homozygote) [times] | hazard ratio (HR) of discontinuation of medication ([1]; TT genotype at rs1036145 vs non-risk allele homozygote, p=0.033) | Time to discontinuation, Est (COX proportional hazard model) [1, 2] | Time to discontinuation, HR (hazard ratio) [1, 2] | Time to discontinuation, Est (COX proportional hazard model) [1, 3] | Time to discontinuation, HR (hazard ratio) [1, 3] | Time to discontinuation, Est (COX proportional hazard model) [1, 4] | Time to discontinuation, HR (hazard ratio) [1, 4] | Time to discontinuation, Est (COX proportional hazard model) [1, 5] | Time to discontinuation, HR (hazard ratio) [1, 5] | Time to discontinuation, Est (COX proportional hazard model) [1, 6] | Time to discontinuation, HR (hazard ratio) [1, 6] | Time to discontinuation, Est (COX proportional hazard model) [1, 7] | Time to discontinuation, HR (hazard ratio) [1, 7] |
| --- | --- | --- | --- | --- | --- | --- | --- | --- | --- | --- | --- | --- | --- | --- | --- | --- | --- | --- | --- | --- |
| O=C(CCCN1CCC(O)(c2ccc(Cl)cc2)CC1)c1ccc(F)cc1 [haloperidol] | Neither clozapine nor haloperidol showed significant effects | slight decrease | slight decrease | Neither clozapine nor haloperidol showed significant effects |  |  |  |  |  |  |  |  |  |  |  |  |  |  |  |  |
| Cc1cc2c(s1)Nc1ccccc1N=C2N1CCN(C)CC1 [olanzapine] |  |  |  |  | ~4 | 0.254 | ~5 | 0.208 | −0.119 | 0.888 | −1.371 | 0.254 | −0.06 | 0.942 | −1.569 | 0.208 | −0.431 | 0.65 | −0.688 | 0.503 |
| CN1CCN(C2=Nc3cc(Cl)ccc3Nc3ccccc32)CC1 [clozapine] |  |  |  | Neither clozapine nor haloperidol showed significant effects |  |  |  |  |  |  |  |  |  |  |  |  |  |  |  |  |
